From patent US5214204A, “Arylamidoalkyl-N-hydroxyurea compounds having lipoxygenase inhibitory activity” (Abbott Laboratories, priority 1991, dated 1993)

Target: T1, 5-Lipoxygenase from HWBL-1 20,000 xg Supernatant (Rattus norvegicus, UniProt P12527)
T1 construct: 20,000 xg supernatant from 1.5 million homogenized HWBL-1 cells; endogenous in cells
T1 sequence (P12527 1-673): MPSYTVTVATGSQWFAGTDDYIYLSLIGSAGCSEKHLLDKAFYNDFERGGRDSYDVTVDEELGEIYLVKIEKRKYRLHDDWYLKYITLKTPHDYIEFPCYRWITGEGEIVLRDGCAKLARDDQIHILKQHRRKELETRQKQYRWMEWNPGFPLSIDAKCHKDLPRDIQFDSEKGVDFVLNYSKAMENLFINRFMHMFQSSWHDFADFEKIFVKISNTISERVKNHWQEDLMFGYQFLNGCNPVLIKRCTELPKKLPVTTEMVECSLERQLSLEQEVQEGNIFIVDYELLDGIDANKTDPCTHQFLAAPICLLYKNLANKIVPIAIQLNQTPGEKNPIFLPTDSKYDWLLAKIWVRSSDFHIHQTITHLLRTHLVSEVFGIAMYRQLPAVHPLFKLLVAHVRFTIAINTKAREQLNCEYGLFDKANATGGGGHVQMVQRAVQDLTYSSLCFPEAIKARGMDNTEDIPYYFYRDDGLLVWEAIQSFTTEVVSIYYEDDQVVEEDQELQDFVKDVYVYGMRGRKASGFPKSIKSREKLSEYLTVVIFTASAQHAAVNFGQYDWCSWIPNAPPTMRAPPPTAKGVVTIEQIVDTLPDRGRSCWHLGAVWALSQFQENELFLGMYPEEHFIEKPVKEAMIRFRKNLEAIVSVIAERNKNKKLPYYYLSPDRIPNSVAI
Assay: 5-lipoxygenase inhibition, 20,000 xg supernatant of homogenized HWBL-1 cells, radiolabeled arachidonic acid
Assay type: biochemical
Details: read-out: IC50 (in vitro inhibitory potency against 5-lipoxygenase)
Experimental: Assays to determine 5-lipoxygenase inhibitory activity of representative compounds of the present invention were performed in […] incubations containing the 20,000 xg supernatant from 1.5 million homogenized HWBL-1 cells and various concentrations of the test compound. Reactions were initiated by addition of radiolabeled arachidonic acid and terminated by acidification and ether extraction. Reaction products were separated from nonconverted substrate by thin layer chromatography and measured by liquid scintillation spectroscopy. All incubations are performed in triplicate. Inhibition of 5-lipoxygenase activity was calculated as the ratio of the amount of product formed in the presence and absence of inhibitor. IC50 values (concentration of compound producing 50% enzyme inhibition) were calculated by linear regression analysis of percentage inhibition versus log inhibitor concentration plots. (Dyer, R. D.; Haviv, F.; Hanel, A. M.; Bornemier, D. A.; Carter, G. W. Fed. Proc., Fed. Am. Soc. Exp. Biol. 1984, 43, 1462A).
In Vitro Inhibitory Potencies of Compounds of this Invention
Against 5-Lipoxygenase from HWBL-1 20,000 xg Supernatant

Molecule | IC50 [nM]
NC(=O)N(O)CCNS(=O)(=O)c1ccc2ccccc2c1 [Example 48, N-Hydroxy-N-[2-((naphth-2-ylsulfonyl)amino)ethyl]urea] | 1100
CC(CNC(=O)c1cccc(Oc2ccccc2)c1)N(O)C(N)=O (stereo not shown) [Example 33, N-Hydroxy-N-[3-((3-phenoxybenzoyl)amino)prop-2-yl]urea] | 610
CC(CN(O)C(N)=O)N(C)C(=O)c1cccc(Oc2ccc(Cl)cc2)c1 (stereo not shown) [Example 50, N-Hydroxy-N-[2-(((3-(4-chlorophenoxy)benzoyl)-N-methyl)amino)propyl]urea] | 5800
CN(C(=O)CN(O)C(N)=O)c1ccc(Oc2ccccc2)cc1 [Example 4] | 5800
CCCCOc1ccc(C(=O)NCCN(O)C(N)=O)cc1 [Example 18] | 250
NC(=O)N(O)CCNC(=O)c1cccc(Oc2cc(Cl)cc(Cl)c2)c1 [Example 30, N-Hydroxy-N-[2-((3-(3.5-dichlorophenoxy)benzoyl)amino)ethyl]urea] | 340
NC(=O)N(O)CCNC(=O)c1cscc1Sc1ccc(Cl)cc1 [Example 59, N-Hydroxy-N-[2-((4-(4-chlorothiophenoxy)thien-3-oyl)amino)ethyl]urea] | 100
CCCCCCOc1ccc(C(=O)NCCN(O)C(N)=O)cc1 [Example 57, N-Hydroxy-N-[2-((4-n-hexyloxybenzoyl)amino)ethyl]urea] | 290
COc1ccc(C(=O)NCCN(O)C(N)=O)cc1 [Example 17] | 5000
CN(C(=O)CN(O)C(N)=O)c1cccc(Oc2ccccc2)c1 [5, step 2] | 6300
NC(=O)N(O)CCNC(=O)c1ccc(Cl)cc1 [Example 20, N-Hydroxy-N-[2-((4-chlorobenzoyl)amino)ethyl]urea] | 4500
NC(=O)N(O)CCNC(=O)Cc1ccccc1Nc1c(Cl)cccc1Cl [Example 83, N-Hydroxy-N-[2((2-(2.6-dichlorophenylamino)phenylacetyl)amino)ethyl]urea] | 440
CC(/C=C\c1cccc(Oc2ccccc2)c1)NC(=O)CN(O)C(N)=O (stereo not shown) [Example 13] | 830
CC(C)Oc1cccc(C(=O)NCCN(O)C(N)=O)c1 [Example 46, N-Hydroxy-N-[2-((3-(1-methylethoxy)benzoyl)amino)ethyl]urea] | 290
NC(=O)N(O)CC(=O)Nc1ccc(Oc2ccccc2)cc1 [Example 10, N-Hydroxy-N-[(((4-phenoxyphenyl)amino)carbonyl)methyl]urea] | 3500
CC(Oc1ccc(C(=O)NCCN(O)C(N)=O)cc1)c1ccccc1 (stereo not shown) [Example 66, N-Hydroxy-N-[2-((4-(1-phenylethyloxy)benzoyl)amino)ethyl]urea] | 250
CC(C(=O)NCCN(O)C(N)=O)c1cccc(C(C)c2ccccc2)c1 (stereo not shown) [Example 69, N-Hydroxy-N-[2-(((3-(1-phenylethyl)phenyl)propion-2-yl)amino)ethyl]urea] | 390
CC(Oc1cccc(C(=O)NCCN(O)C(N)=O)c1)c1ccccc1 (stereo not shown) [Example 67, N-Hydroxy-N-[2-((3-(1-phenylethyloxy)benzoyl)amino)ethyl]urea] | 350
COc1cccc(C(=O)NCCN(O)C(N)=O)c1 [Example 16] | 1900
CC(/C=C/c1ccc(Br)cc1)NC(=O)CN(O)C(N)=O (stereo not drawn) [Example 11, N-Hydroxy-N-[(((trans-4-(4-bromophenyl)but-3-en-2-yl)amino)carbonyl)methyl]urea] | 6600
CN(C(=O)CN(O)C(N)=O)c1cccc(OCc2ccccc2)c1 [Example 9, N-Hydroxy-N-[((N-methyl-(3-phenylmethoxyphenyl)amino)carbonyl)methyl]urea] | 2800
CN(CCN(O)C(N)=O)C(=O)c1cccc(Oc2ccccc2)c1 [Example 15] | 640
CNC(=O)N(O)CCNC(=O)c1cccc(Oc2ccccc2)c1 [Example 24, N-Hydroxy-N'-methyl-N-[2-((3-phenoxybenzoyl)amino)ethyl]urea] | 290
NC(=O)N(O)CCNC(=O)c1cccc(C(=O)c2ccccc2)c1 [Example 65, N-Hydroxy-N-[2-((3-benzoylbenzoyl)amino)ethyl]urea] | 220
NC(=O)N(O)CC(=O)Nc1cccc(Oc2ccccc2)c1 [Example 1, N-Hydroxy-N-[(((3-phenoxyphenyl)amino)carbonyl)methyl]urea] | 480
NC(=O)N(O)CC(=O)Nc1cccc(OCc2ccccc2)c1 [Example 3, N-Hydroxy-N-[(((3-phenylmethoxyphenyl)amino)carbonyl)methyl]urea] | 870
N-Hydroxy-N-[2-((3-(4-chlorophenylsulfonyl)benzoyl)amino)ethyl]urea [Example 62] | 910
COc1ccc(Oc2cccc(C(=O)NCCN(O)C(N)=O)c2)cc1 [Example 28, N-Hydroxy-N-[2-((3-(4-methoxyphenoxy)benzoyl)amino)ethyl]urea] | 230

More lines, now with the values ahead:

IC50 [nM] | Molecule
930 | NC(=O)N(O)CCNC(=O)c1csc(-c2ccccc2)n1 [Example 84, N-Hydroxy-N-[2-((2-phenylthiazol-4-oyl)amino)ethyl]urea]
7300 | CNC(=O)N(O)CC(=O)N(C)c1cccc(Oc2ccccc2)c1 [5, step 3]
470 | CC(C)(C)c1ccc(Oc2cccc(C(=O)NCCN(O)C(N)=O)c2)cc1 [Example 31, N-Hydroxy-N-[2-((3-(4-tert-butylphenoxy)benzoyl)amino)ethyl]urea]
310 | CN(CCN(O)C(N)=O)Cc1cccc(Oc2ccc(Cl)c(Cl)c2)c1 [Example 39, N-Hydroxy-N-[2-(N-methyl((3-(3,4-dichlorophenoxy)phenyl)methyl)amino)ethyl]urea]
380 | NC(=O)N(O)CCNC(=O)c1ccc(-c2ccccc2)cc1 [Example 34, N-Hydroxy-N-[2-((4-phenylbenzoyl)amino)ethyl]urea]
100 | NC(=O)N(O)CCNC(=O)c1ccc2ccccc2n1 [Example 75, N-Hydroxy-N-[2-((quinolin-2-oyl)amino)ethyl]urea]
230 | C=C(C)COc1cccc(C(=O)NCCN(O)C(N)=O)c1 [Example 47, N-Hydroxy-N-[2-((3-(2-methyl-prop-2-enyloxy)benzoyl)amino)ethyl]urea]
1800 | CN(CCN(O)C(N)=O)C(=O)Cc1ccc(Br)cc1 [Example 14, N-Hydroxy-N-[2-(((4-bromophenylacetyl)-N-methyl)amino)ethyl]urea]
1600 | COc1ccc(CN(C)CCN(O)C(N)=O)cc1OCc1ccccc1 [Example 41, N-Hydroxy-N-[2-(((((4-methoxy-3-phenylmethoxy)phenyl)methyl)-N-methyl)amino)ethyl]urea]
290 | NC(=O)N(O)CCNC(=O)c1cccn1Cc1ccc(Cl)cc1 [Example 49, N-Hydroxy-N-[2-(((1-(4-chlorophenylmethyl)pyrrol-2-yl)carbonyl)amino)ethyl]urea]
730 | CC(/C=C/c1cccc(Oc2ccccc2)c1)NC(=O)CN(O)C(N)=O (stereo not drawn) [Example 12, N-Hydroxy-N-[(((trans-4-(3-phenoxyphenyl)but-3-en-2-yl)amino)carbonyl)methyl]urea]
330 | NC(=O)N(O)CCCCNC(=O)c1cccc(Oc2ccccc2)c1 [Example 22, N-Hydroxy-N-[4-((3-phenoxybenzoyl)amino)butyl]urea]
300 | NC(=O)N(O)CCNC(=O)c1cccc(Oc2ccc(Cl)c(Cl)c2)c1 [Example 29, N-Hydroxy-N-[2-((3-(3,4-dichlorophenoxy)benzoyl)amino)ethyl]urea]
390 | NC(=O)N(O)CCNC(=O)CCc1ccccc1 [Example 77, N-Hydroxy-N-[2-((3-phenylpropionyl)amino)ethyl]urea]
110 | NC(=O)N(O)CCNC(=O)COc1ccc(Oc2ccccc2)cc1 [Example 72, N-Hydroxy-N-[2-((4-phenoxyphenoxyacetyl)amino)ethyl] urea]
1000 | COc1ccc2cc(/C=C(\C)C(=O)NCCN(O)C(N)=O)ccc2c1 [Example 76, N-Hydroxy-N-[2-(((3-(6-methoxynaphth-2-yl)prop-2-en-2-yl)carbonyl)amino)ethyl]urea]
5000 | CC(C)Cc1ccc(C(C)C(=O)NCCN(O)C(N)=O)cc1 (stereo not shown) [Example 82, N-Hydroxy-N-[2-((2-(4-(2-methylpropyl)phenyl)propionyl)amino)ethyl]urea]
760 | CNC(=O)N(O)CCNC(=O)c1cccc(Oc2ccc(Cl)cc2)c1 [Example 27, N-Hydroxy-N'-methyl-N-[2-((3-(4-chlorophenoxy)benzoyl)amino)ethyl]urea]
